Measurements published in ChEMBL document CHEMBL1151757, “Synthesis, radiosynthesis, and biological evaluation of fluorine-18-labeled 2beta-carbo(fluoroalkoxy)-3beta-(3'-((Z)-2-haloethenyl)phenyl)nortropanes: candidate radioligands for in vivo imaging of the serotonin transporter with positron emission tomography” (J Med Chem, 2008).

How the values were obtained:
Medulla [1] = experiment: Drug uptake in anesthetized cynomolgus monkey brain medulla after 192.5 mins postinjection; type: ADME, organism-based, Macaca fascicularis; settings: in vivo
[2] = Drug uptake in anesthetized cynomolgus monkey brain frontal lobe after 192.5 mins postinjection; type: ADME, organism-based, Macaca fascicularis; settings: in vivo
Thalamus = experiment: Drug uptake in anesthetized cynomolgus monkey brain thalamus after 187.5 mins postinjection; type: ADME, organism-based, Macaca fascicularis; settings: in vivo, 3.125 h
Medulla [3] = experiment: Drug uptake in anesthetized cynomolgus monkey brain medulla after 187.5 mins postinjection; type: ADME, organism-based, Macaca fascicularis; settings: in vivo, 3.125 h
[4] = Drug uptake in anesthetized cynomolgus monkey brain cerebellum after 187.5 mins postinjection; type: ADME, organism-based, Macaca fascicularis; settings: in vivo, 3.125 h
[5] = Drug uptake in anesthetized cynomolgus monkey brain frontal lobe after 197.5 mins postinjection; type: ADME, organism-based, Macaca fascicularis; settings: in vivo
[6] = Drug uptake in anesthetized cynomolgus monkey brain occipital lobe after 182.5 mins postinjection; type: ADME, organism-based, Macaca fascicularis; settings: in vivo
Medulla [7] = experiment: Drug uptake in anesthetized cynomolgus monkey brain medulla after 202.5 mins postinjection; type: ADME, organism-based, Macaca fascicularis; settings: in vivo, 3.375 h
[8] = Drug uptake in anesthetized cynomolgus monkey brain frontal lobe after 207.5 mins postinjection; type: ADME, organism-based, Macaca fascicularis; settings: in vivo
[9] = Drug uptake in anesthetized cynomolgus monkey brain cerebellum after 182.5 mins postinjection; type: ADME, organism-based, Macaca fascicularis; settings: in vivo
Putamen [10] = experiment: Drug uptake in anesthetized cynomolgus monkey brain putamen after 192.5 mins postinjection; type: ADME, organism-based, Macaca fascicularis; settings: in vivo
Putamen [11] = experiment: Drug uptake in anesthetized cynomolgus monkey brain putamen after 187.5 mins postinjection; type: ADME, organism-based, Macaca fascicularis; settings: in vivo, 3.125 h
Caudate = experiment: Drug uptake in anesthetized cynomolgus monkey brain caudate after 197.5 mins postinjection; type: ADME, organism-based, Macaca fascicularis, Caudate nucleus; settings: in vivo
[12] = Drug uptake in awake rhesus monkey brain putamen after 115 mins postinjection; type: ADME, organism-based, Macaca mulatta; settings: in vivo
[13] = Drug uptake in awake rhesus monkey brain caudate after 2.25 mins postinjection; type: ADME, organism-based, Macaca mulatta, Caudate nucleus; settings: in vivo, 135 s
[14] = Metabolic stability in anesthetized cynomolgus monkey plasma after 180 mins postinjection; type: ADME, organism-based, Macaca fascicularis; settings: read-out: Stability
[15] = Drug uptake in awake rhesus monkey brain caudate after 85 mins postinjection; type: ADME, organism-based, Macaca mulatta, Caudate nucleus; settings: in vivo
[16] = Ratio of drug uptake in medulla to cerebellum in awake rhesus monkey after 4.5 mins postinjection; type: ADME, organism-based, Macaca mulatta; settings: in vivo, 0.075 h
[17] = Drug uptake in awake rhesus monkey brain midbrain after 13.5 mins postinjection; type: ADME, organism-based, Macaca mulatta; settings: in vivo, 0.225 h
[18] = Ratio of drug uptake in pons to cerebellum in awake rhesus monkey after 7.5 mins postinjection; type: ADME, organism-based, Macaca mulatta; settings: in vivo, 0.125 h
[19] = Drug uptake in awake rhesus monkey brain medulla after 0.25 mins postinjection; type: ADME, organism-based, Macaca mulatta; settings: in vivo, 15 s
[20] = Drug uptake in awake rhesus monkey brain frontal lobe after 2.75 mins postinjection; type: ADME, organism-based, Macaca mulatta; settings: in vivo, 165 s
[21] = Ratio of drug uptake in midbrain to cerebellum in awake rhesus monkey after 35 mins postinjection; type: ADME, organism-based, Macaca mulatta; settings: in vivo
[22] = Drug uptake in awake rhesus monkey brain frontal lobe after 1.25 mins postinjection; type: ADME, organism-based, Macaca mulatta; settings: in vivo, 75 s
[23] = Ratio of drug uptake in putamen to cerebellum in awake rhesus monkey after 4.5 mins postinjection; type: ADME, organism-based, Macaca mulatta; settings: in vivo, 0.075 h
[24] = Ratio of drug uptake in midbrain to cerebellum in awake rhesus monkey after 105 mins postinjection; type: ADME, organism-based, Macaca mulatta; settings: in vivo, 1.75 h
[25] = Drug uptake in awake rhesus monkey brain cerebellum after 0.75 mins postinjection; type: ADME, organism-based, Macaca mulatta; settings: in vivo, 45 s
[26] = Drug uptake in awake rhesus monkey brain midbrain after 7.5 mins postinjection; type: ADME, organism-based, Macaca mulatta; settings: in vivo, 0.125 h
[27] = Ratio of drug uptake in frontal lobe to cerebellum in awake rhesus monkey after 45 mins postinjection; type: ADME, organism-based, Macaca mulatta; settings: in vivo, 0.75 h
[28] = Drug uptake in awake rhesus monkey brain thalamus after 1.25 mins postinjection; type: ADME, organism-based, Macaca mulatta; settings: in vivo, 75 s
[29] = Drug uptake in awake rhesus monkey brain pons after 75 mins postinjection; type: ADME, organism-based, Macaca mulatta; settings: in vivo, 1.25 h
[30] = Drug uptake in awake rhesus monkey brain medulla after 1.25 mins postinjection; type: ADME, organism-based, Macaca mulatta; settings: in vivo, 75 s
[31] = Protein binding in anesthetized cynomolgus monkey plasma after 1 min postinjection; type: ADME, organism-based, Macaca fascicularis; settings: read-out: PPB (converted)
[32] = Drug uptake in awake rhesus monkey brain putamen after 65 mins postinjection; type: ADME, organism-based, Macaca mulatta; settings: in vivo
[33] = Drug uptake in awake rhesus monkey brain pons after 7.5 mins postinjection; type: ADME, organism-based, Macaca mulatta; settings: in vivo, 0.125 h
[34] = Protein binding in anesthetized cynomolgus monkey plasma after 2 mins postinjection; type: ADME, organism-based, Macaca fascicularis; settings: read-out: PPB (converted)
[35] = Drug uptake in awake rhesus monkey brain frontal lobe after 115 mins postinjection; type: ADME, organism-based, Macaca mulatta; settings: in vivo
[36] = Drug uptake in awake rhesus monkey brain frontal lobe after 2.25 mins postinjection; type: ADME, organism-based, Macaca mulatta; settings: in vivo, 135 s
[37] = Drug uptake in awake rhesus monkey brain midbrain after 1.25 mins postinjection; type: ADME, organism-based, Macaca mulatta; settings: in vivo, 75 s
[38] = Drug uptake in awake rhesus monkey brain pons after 0.25 mins postinjection; type: ADME, organism-based, Macaca mulatta; settings: in vivo, 15 s
[39] = Drug uptake in awake rhesus monkey brain pons after 2.75 mins postinjection; type: ADME, organism-based, Macaca mulatta; settings: in vivo, 165 s

Compound `O=C(OCCC[18F])C1C2CCC(CC1c1cccc(/C=C\Br)c1)N2` (stereo not given) has a Drug uptake (Medulla [1]) of 3.98, a Drug uptake [2] of 2.16 and a Drug uptake (Thalamus) of 3.88. It also gave a Drug uptake (Medulla [3]) of 4.04, a Drug uptake [4] of 2.35 and a Drug uptake [5] of 2.23. It also gave a Drug uptake [6] of 2.93, a Drug uptake (Medulla [7]) of 3.68 and a Drug uptake [8] of 2.03. It also gave a Drug uptake [9] of 2.27, a Drug uptake (Putamen [10]) of 3.92 and a Drug uptake (Putamen [11]) of 3.87. It also gave a Drug uptake (Caudate) of 3.62.
In the case of `O=C(OCC[18F])C1C2CCC(CC1c1cccc(/C=C\I)c1)N2` (stereo not given), the Drug uptake [12] is reported as 0.13, the Drug uptake [13] is reported as 0.03 and the remaining at 3 h [14] is reported as 13%. The Drug uptake [15] was 0.14, the Drug uptake (Medulla [1]) was 2.52 and the Ratio [16] was 1.1. The Drug uptake [17] was 0.09, the Ratio [18] was 1 and the Drug uptake [19] was 0. For the same compound, the Drug uptake [20] was 0.03, the Ratio [21] was 1.3 and the Drug uptake (Thalamus) was 2.65. For the same compound, the Drug uptake [22] was 0, the Drug uptake (Medulla [3]) was 2.64 and the Ratio [23] was 1.3. For the same compound, the Ratio [24] was 1.7, the Drug uptake [25] was 0 and the Drug uptake [26] was 0.08. The Ratio [27] was 1, the Drug uptake [28] was 0.01 and the Drug uptake [29] was 0.14. It also gave a Drug uptake [5] of 1.58, a Drug uptake [30] of 0.01 and a fraction unbound at 1 min [31] of 0.942. The Drug uptake [32] was 0.16, the Drug uptake (Medulla [7]) was 2.54 and the Drug uptake [33] was 0.08. It also gave a Drug uptake [9] of 1.52, a Drug uptake (Putamen [10]) of 2.67 and a fraction unbound at 2 min [34] of 0.944. For the same compound, the Drug uptake [35] was 0.1, the Drug uptake (Putamen [11]) was 2.77 and the Drug uptake [36] was 0.02. It also gave a Drug uptake [37] of 0.01, a Drug uptake [38] of 0 and a Drug uptake (Caudate) of 2.24. It also gave a Drug uptake [39] of 0.02.
